Assay results taken from a melting point compilation (Tetko et al.; mined from patent text by program, amines drawn as free bases though some values may be those of a salt).

| SMILES | melting point [°C] |
| --- | --- |
| CCCCc1nc(Cl)c(C(N)=O)n1Cc1ccc(-c2ccccc2C(=O)O)cc1 | 200 to 202 |
| O=C(Nc1cccc2c(=O)cc(-c3nnn[nH]3)oc12)c1ccc2c(c1)CCC(COCc1ccccc1)O2 (configuration not stated) | 214 to 216 |
| CC(C)c1ccc(C(=O)Nc2cn3cc(-n4ccnc4)ccc3n2)cc1 | 291 to 293 |
| COc1cc2nc(N(C)C)nc(N)c2cc1OC | 223 to 224 |
| CCOC(=O)N1CCC(=C2c3ccc(Cl)cc3OCc3cc([N+](=O)[O-])cnc32)CC1 | 192 to 193 |
| CN(C)C(=O)N(C)Cc1ccc(CCn2cnc3cc(-c4ccc(Cl)cc4)sc3c2=O)cc1 | 160 to 165 |
| CN1Cc2c(-c3nc(CN(CC4CC4)CC4CC4)no3)ncn2-c2ccccc2C1=O | 170 to 174 |
| O=C(O)Cc1cccc(Cc2nc3c(F)c(F)ccc3s2)c1 | 154 to 155 |
| O=C(O)c1cc([N+](=O)[O-])c(-c2ccncc2)[nH]c1=O | > 300 |
| CCCCc1nc2sccc2c(=O)n1CCC | 70 to 72 |
| O=S(=O)(CC(O)(CI)c1ccccc1)c1ccccc1 (configuration not stated) | 98 |
| O=C(CCCCN1CCCCC1)c1ccc2c(c1)Cc1cc(C(=O)CCCCN3CCCCC3)ccc1S2 | 98.5 to 99.5 |
| COC(=O)[C@H](Cc1ccc(NC(=S)NCCN2CCOCC2)cc1)NC(=O)[C@@H]1CCCN1S(=O)(=O)c1ccc(C)cc1 | 158 to 168 |
| CN1CCN(C(=O)c2ccc(N)cc2C(F)(F)F)CC1 | 154 to 156 |
| CCOc1ccc([N+](=O)[O-])c(NCCN2CCOCC2)c1 | 107 |
| O=C1C(Cl)=C(N2CCN(c3nc4ccccc4o3)CC2)C(=O)c2nsnc21 | 233 to 235 |
| Cc1ncc(CCCOc2c(C)cc(-c3noc(C(F)(F)F)n3)cc2C)s1 | 62 to 64 |
| C=C1C=C(Oc2cc(C(=O)OC)ccc2OC)C1(F)F | 60 to 62 |
| Nc1c(C(O)(C(F)(F)F)C(F)(F)F)ccc2cc(O)ccc12 | 160 to 161 |
| COc1cccc(CC(=O)O)c1OCCCc1cc(OC(C)C)nn1Cc1ccc(Cl)cc1C | 108 to 109 |
| CSc1nc(C)ccc1NC(=O)CCCCCCCCBr | 80 to 82 |
| O=C(O)c1cccc(NC(=O)N2CCc3cc(S(=O)(=O)N4CCN(c5cccc(Cl)c5)CC4)ccc32)c1 | 250 |
| C[C@H]1CCCC(C)(C)[C@@H]1[C@H](O)c1ccc(F)c(C#N)c1 | 118 to 119 |

| SMILES | melting point [°C] |
| --- | --- |
| CC(=O)CCS(=O)(=O)C(c1ccc(Cl)cc1)c1ccc(Cl)cc1 | 103 to 105 |
| CC(=O)CCCCCCC(=O)c1ccc(OCc2ccccc2)c(OCc2ccccc2)c1 | 64 to 66 |
| CC1(C)OCC(C(CS(=O)(=O)c2ccc(-c3ccc(C(F)(F)F)cc3)cc2)N(O)C=O)O1 (configuration not stated) | 204 to 205 |
| CCOC(=O)c1cc(Br)c2ccccn2c1=O | 156 to 158 |
| Fc1ccc(OCCCCN2CCC(NC3=Nc4ccccc4CS3)CC2)cc1 | 133 |
| O=C1N(c2cc(Cl)cc(Cl)c2)C(=O)C2(Cc3ccc(-c4ccc([N+](=O)[O-])cc4)cc3)CCCN12 (configuration not stated) | 72 to 73 |
| CN=C1SCC(O)(c2ccc(Cl)c(S(=O)(=O)N(C)C)c2)N1C (configuration not stated) | 157 to 158 |
| COC(=O)C(Br)c1ccc2c(c1)OCO2 (configuration not stated) | 39 to 41 |
| CCN(CC)S(=O)(=O)c1ccc2[nH]c(-c3c(C)c(Cl)cc(C(C)(C)C)c3O)nc2c1 | 277 to 278 |
| CS(=O)(=O)c1ncnn1C[C@]1(c2ccccc2Cl)O[C@@H]1c1ccc(Cl)cc1Cl (relative stereo) | 129 to 133 |
| O=C(O)CCC(=NOCc1ccc(OCc2cn3c(Cl)cccc3n2)cc1)c1ccccc1 | 160 to 161 |
| CCCCCCCCCCCCCCCCCCNC(=O)OCC(CNS(=O)(=O)CCCCl)NC(=O)OC (configuration not stated) | 99 to 101 |
| CC(=O)OC1=C(CCCCCCCCC[Si](C)(C)C)C(=O)c2ccccc2C1=O | 45 to 47 |
| NS(=O)(=O)c1c(CF)nsc1OCC(F)(F)F | 70 to 73 |
| CCN(C)c1nc2cc(Br)ccn2n1 | 109 to 111 |
| CC(C)N1Cc2c(-n3c(=O)cc(C(F)(F)F)[nH]c3=O)ccc(Cl)c2C1=O | > 250 |
| COc1ccc(-c2cc(C(F)(F)F)n3cnc(C#N)c3n2)cc1 | 192 |
| CCCc1c(OCCCCCCc2ccc(OCCCC(=O)O)cc2/C=C/C(=O)O)ccc2c1OCCC2=O | 140 to 143 |
| COc1cc(Nc2ncc(-c3ccccc3C(=O)O)o2)ccc1-c1cnco1 | 271 to 274 |
| CSC1C(=O)Nc2c(C(=O)c3ccc(F)cc3)cc(Cl)cc21 (configuration not stated) | 202 to 204 |
| CC(=N)Nc1cccc(CNO)c1 | 214 to 215 |
| CC(C#Cc1ccc(Oc2c(F)cccc2F)o1)N(O)C(N)=O (configuration not stated) | 161 |
| CC(C)Oc1cc(Oc2ccc(S(C)(=O)=O)cn2)cc2cc(C3=NCC(CC(N)=O)S3)[nH]c12 (configuration not stated) | 212 to 213 |

| SMILES | melting point [°C] |
| --- | --- |
| COc1ccccc1N1CCN(C(=O)Nc2nc(C)c(C)nc2OC)CC1 | 184 to 185 |
| O=C(Nc1c(C(O)(C(F)(F)F)C(F)(F)F)ccc2ccccc12)C1CC1 | 163 to 165 |
| O=S(=O)(Nc1ccccc1)c1ccc(-c2cnn3c(O)ncnc23)cc1 | 274 to 277 |
| O=[N+]([O-])c1ccc(CN2CCN(c3ccc(F)cc3)CC2)cc1 | 139 to 141 |
| O=c1ccn(CCOCCO)c(C(O)c2ccccc2)c1OCc1ccccc1 (configuration not stated) | 157 to 159 |
| CC1(C)CC(C)(c2ccc(Oc3ccc([N+](=O)[O-])cc3)cc2)c2cc(Oc3ccc([N+](=O)[O-])cc3)ccc21 (configuration not stated) | 214 to 216 |
| Nc1nc(N)nc(-c2ccc(-c3ccc([N+](=O)[O-])cc3)cc2)n1 | > 250 |
| COc1cc2nc(N)nc(-c3cccc(CO)c3)c2cc1OC | 230 to 232 |
| Cc1noc(NS(=O)(=O)c2ccccc2-c2ccc(-c3ncco3)cc2CN(C)C(=O)CCc2ccccc2)c1C | 110 to 117 |
| COCCN(C)Cc1c(-c2ccc(NC(=O)NOC)cc2)sc2c1c(=O)n(-c1ccccc1)c(=O)n2Cc1c(F)cccc1F | 161 to 163 |
| CC(=O)OCc1ccc(-c2[nH]c(-c3cccc4ccccc34)nc2C(=O)OC(C)(C)C)cc1 | 162 to 164 |
| N#Cc1cc2cc(O)c(O)cc2s1 | 229 to 230 |
| Cc1ccncc1-c1nc(-c2ccc(Cl)cc2)c(Cl)s1 | 146 |
| O=C(CCc1ccccc1)NC(C(=O)Nc1n[nH]c(=S)s1)c1ccccc1 (configuration not stated) | 196 to 198 |
| CC1=C(C)C(=O)N(CC(=O)N2c3ccccc3N(Cc3ccccc3)C(=O)[C@H]3CCC[C@H]32)C1=O (relative stereo) | 196 to 200 |
| Cc1nc(-c2ccc(Cl)cc2)n(-c2ccc(S(N)(=O)=O)cn2)n1 | 215 to 217 |
| O=C(O)CN1C(=O)C(=Cc2ccc(OCc3ccc(F)cc3F)c(OCc3ccc(F)cc3F)c2)SC1=S | 251 to 254 |
| O=C(O)C(=O)c1ccc(OCCCn2c(=O)ccc3ccccc32)cc1 | 183 to 186 |
| c1cc(-c2nc3c4c(ncc3[nH]2)CCOC4)no1 | > 300 |
| O=C(NCCCCCNc1c([N+](=O)[O-])cnc2ccccc12)c1ccccc1 | 130 to 132 |
| Oc1ccc(C2(c3ccc(O)cc3)CCCCCC2)cc1 | 208 to 209 |
